# Measurements published in article PMC9810167, “Novel dual LSD1/HDAC6 inhibitor for the treatment of cancer” (PLOS ONE, 2023).
# Where two headings read alike, the source gives them in different places.
# Key:
# HDAC2 = molecular target: T1, HDAC2 (Homo sapiens, UniProt Q92769); assay: HDAC isoform inhibition assay (Reaction Biology); type: biochemical; details: generated at Reaction Biology Corporation
# T1 construct: purchased Reaction Biology Corporation (assay run at the CRO)
# Method: (§1) Dose-response studies for HDAC isoforms were conducted at Reaction Biology Corporation. All assays are based on the same principle of a two-step reaction: first, the substrate with the acetylated lysine side chain is incubated with a sample containing HDAC enzyme, to produce the deacetylated products, which are then digested in the second step by the addition of the developer to produce the fluorescent signal proportional to the amount of deacetylated substrates. Recombinant proteins HDAC1, HDAC2, HDAC3, HDAC4, HDAC5, HDAC6, HDAC7, HDAC8, HDAC9, and HDAC10 were incubated with a test compound for 5min, and then the fluorophore-conjugated substrate was added to the wells and incubated for 30 min to 2 h for different HDACs. Reactions were performed in assay buffer (50 mM Tris-HCl, pH 8.0, 137 mM NaCl, 2.7 mM KCl, 1 mM MgCl2, 1 mg/mL BSA, 1% DMSO, pH 7.4) and fluorescence measurements were obtained approximately every 20 min for an hour using an Envision, Perkin-Elmer plate reader (Excitation 360 nm/Emission 460 nm). IC50 values and curve fits were obtained using (GraphPad Prism Software, Inc.).
# HDAC9 = molecular target: T2, HDAC9 (Homo sapiens, UniProt Q9UKV0); assay: HDAC isoform inhibition assay (Reaction Biology); type: biochemical; details: generated at Reaction Biology Corporation
# T2 construct: purchased Reaction Biology Corporation (assay run at the CRO)
# Method: as §1
# HDAC7 = molecular target: T3, HDAC7 (Homo sapiens, UniProt Q8WUI4); assay: HDAC isoform inhibition assay (Reaction Biology); type: biochemical; details: generated at Reaction Biology Corporation
# T3 construct: purchased Reaction Biology Corporation (assay run at the CRO)
# Method: as §1
# HDAC5 = molecular target: T4, HDAC5 (Homo sapiens, UniProt Q9UQL6); assay: HDAC isoform inhibition assay (Reaction Biology); type: biochemical; details: generated at Reaction Biology Corporation
# T4 construct: purchased Reaction Biology Corporation (assay run at the CRO)
# Method: as §1
# Hep3B2 = assay: Cell proliferation assay (Alamar Blue); type: cell-based; details: Homo sapiens, Hep3B; Hep3B2, Hepatocellular Carcinoma, 144 h
# Method: (§2) Cells were seeded in NUNC 96-well tissue culture plates (Life Technologies) in […] culture medium and incubated at 37°C/ 5% CO2 to adhere to plastic for 18–24 h. […] One set of plates (designated for the 144 h read out) were centrifuged at low speed for 30 seconds, and respective compounds were replenished in fresh media and incubated for another 68–72 h at 37°C/ 5% CO2. […] The inhibition curve was then fitted by plotting % inhibition against log concentration in GraphPad Prism 5.0 (GraphPad Software, Inc.) and the GI50 value of compound was determined. Data are representative of at least two independent experiments.
# HL60 = assay: Cell proliferation assay (Alamar Blue); type: cell-based; details: Homo sapiens, HL-60; HL60, Leukemia, 144 h
# Method: as §2
# WM-266-4 = assay: Cell proliferation assay (Alamar Blue); type: cell-based; details: Homo sapiens; WM-266-4, Melanoma, 144 h
# Method: as §2
# HT144 = assay: Cell proliferation assay (Alamar Blue); type: cell-based; details: Homo sapiens, HT-144; HT144, Melanoma, 144 h
# Method: as §2
# THP-1 = assay: Cell proliferation assay (Alamar Blue); type: cell-based; details: Homo sapiens; THP-1, Leukemia, 144 h
# Method: as §2
# H1341 = assay: Cell proliferation assay (Alamar Blue); type: cell-based; details: H1341, SCLC, 144 h
# Method: as §2
# Hep-G2 = assay: Cell proliferation assay (Alamar Blue); type: cell-based; details: Homo sapiens, HepG2; Hep-G2, Hepatocellular Carcinoma, 144 h
# Method: as §2
# RPMI-7591 = assay: Cell proliferation assay (Alamar Blue); type: cell-based; details: RPMI-7591, Melanoma, 144 h
# Method: as §2
# H510A = assay: Cell proliferation assay (Alamar Blue); type: cell-based; details: Homo sapiens, NCI-H510A, SCLC, 144 h
# Method: as §2
# OCI-AML3 = assay: Cell proliferation assay (Alamar Blue); type: cell-based; details: Homo sapiens, OCI-AML-3; OCI-AML3, Leukemia, 144 h
# Method: as §2
# G362 = assay: Cell proliferation assay (Alamar Blue); type: cell-based; details: G362, Melanoma, 144 h
# Method: as §2
# H2171 = assay: Cell proliferation assay (Alamar Blue); type: cell-based; details: Homo sapiens, NCI-H2171; H2171, SCLC, 144 h
# Method: as §2
# Colo-289 = assay: Cell proliferation assay (Alamar Blue); type: cell-based; details: Colo-289, Melanoma, 144 h
# Method: as §2
# MM1.R = assay: Cell proliferation assay (Alamar Blue); type: cell-based; details: MM.1R, Multiple Myeloma, 144 h
# Method: as §2
# HL60-MX1 = assay: Cell proliferation assay (Alamar Blue); type: cell-based; details: HL60-MX1, Leukemia, 144 h
# Method: as §2
# SKMeI2 = assay: Cell proliferation assay (Alamar Blue); type: cell-based; details: SKMeI2, Melanoma, 144 h
# Method: as §2
# human LSD1 = molecular target: T5, human LSD1 (Homo sapiens, UniProt O60341); assay: Thermal shift assay (SYPRO Orange); type: binding; details: protein:compound 1:10; Tm in the absence of compound 43°C
# T5 construct: Tm of full length LSD1 protein in the absence of compound was 43°C
# Method: (§3) The melting temperature (Tm) of human LSD1 and HDAC8 proteins were determined by fluorescence based thermal shift assay. Reaction mixture containing 0.5 μM protein, 5X SYPRO™ Orange Protein Gel Stain (Thermo Fisher Scientific Cat: S6650), compound at 10-fold excess for hLSD1, 15-fold excess for hHDAC8. The final volume made up with respective protein buffers. All experiments were done in triplicates at 50 μL reaction volume. The samples heated from 15°C to 95°C with an increment of 1°C per 30sec using CFX96™ Real-Time PCR Detection system–C1000 Thermal Cycler (Bio-Rad). Filters custom configured to the optimal excitation (492 nm) and emission (610 nm) wavelengths for SYPRO orange dye. Protein denaturation monitored by the increase in fluorescence signal emitted by SYPRO Orange. The SYPRO Orange binds to the exposed hydrophobic regions of protein undergoing thermal denaturation and corresponding fluorescence emissions are recorded as melt curves. The temperature corresponding to the inflection point, Tm is determined by calculating the first derivative from melt curve using CFX manager 3.1 software (Bio-Rad).
# hHDAC8 = hHDAC8 (Homo sapiens, UniProt Q9BY41); assay: Thermal shift assay (SYPRO Orange); type: binding; details: protein:compound 1:15; Tm without compound 41°C
# Method: as §3
# MM1.S xenograft = assay: MM1.S multiple myeloma xenograft model; type: in vivo; details: for TGI: 13 d
# CT-26 syngeneic tumors = assay: CT-26 mouse colon cancer syngeneic model; type: in vivo, BALB/c mice; details: 14 d
# Method: For CT-26 syngeneic mouse colon cancer model female BALB/c (6–8 weeks old, Vivo Biotech, India) were used. 1x10^6 CT26 tumor cells in 100 μL of serum-free medium mixed with 1:1 ratio of matrigel were injected s.c. into the right flank of mice. […] During the experiment, body weights were measured 2–3 times a week and tumor volume was measured using callipers every other day in three dimensions. Tumor volume was calculated from the pi-based ellipsoid volume formula π/6*length*width*height. Mice were culled when the tumor volume reached either the ethical limit of 2000 mm^3 or if the tumor was ulcerated. The percentage change in tumor volume from baseline was used to assess the response to treatment. Tumor measurements were performed in a blinded manner throughout the study.
# [1] = system: HEL92.1.7 xenograft tumors; assay: HEL92.1.7 erythroleukaemia xenograft model; type: in vivo; details: for % tumor growth inhibition (TGI): PO, QD, 14 days
# HDAC1 = molecular target: T6, HDAC1 (Homo sapiens, UniProt Q13547); assay: HDAC isoform inhibition assay (Reaction Biology); type: biochemical; details: generated at Reaction Biology Corporation
# T6 construct: purchased Reaction Biology Corporation (assay run at the CRO)
# CD86 = assay: Differentiation marker mRNA by RT-qPCR in HEL 92.1.7 cells; type: cell-based, human; details: HEL92.1.7, 3–48 h
# Method: (§4) Total RNA was isolated using the TRIzol (Thermo Fisher Scientific, Waltham, MA, USA) reagent according to the manufacturer's instructions. The obtained RNA was reverse-transcribed to synthesize the complementary DNA from RNA using High Capacity cDNA Reverse Transcription Kit (Applied Biosystems, U.S.). DyNAmo ColorFlash SYBR Green qPCR Kit (Thermo Fisher Scientific) was used with cDNA and gene specific primers at a final volume of 10 μL. Real-time quantitative PCR was performed for 40 cycles of 15 s each, at 95°C and 30 s at 60°C, using a CFX96 real time machine (Bio-Rad). All reactions were performed in duplicate and the data was calculated using the delta (delta Ct) method. The relative gene expression levels for a target gene was normalized to the expression of β-actin. All the primer sequences were procured from Eurofins Genomics India Limited. Primer sequences for the analysed genes are as follows: • beta Actin [NT], beta Actin [NT]. Gfi1b [NT], Gfi1b [NT], CD86 [NT], CD86 […], CD11b [NT]
# CD11b = assay: as above; type: cell-based, human; details: HEL92.1.7, 3–48 h
# Method: as §4
# GFI1b = assay: as above; type: cell-based, human; details: HEL92.1.7, 3–48 h
# Method: as §4
# acetylation of α-Tubulin = assay: Western blot of tubulin acetylation in HEL92.1.7 cells; type: cell-based, human; details: HEL92.1.7, 3 to 48 h, 8 point dose response from 10 μM
# Method: Cells were harvested and washed twice with cold PBS after the indicated treatments. Cell pellets were lysed in 30μl of lysis buffer (50 mM Tris-HCl, pH 7.4, 150 mM NaCl, 1% Triton X-100, 0.1% SDS, 1 mM EDTA, 1 mM Na3VO4, 1 mM NaF, and protease inhibitor cocktail) for 30 min on ice. Lysates were centrifuged at 12,000 ×g for 20 min at 4°C, and the protein content in the supernatants was determined using the Bradford reagent (Bio-Rad). Equal amount of protein lysate was resolved by SDS-PAGE and transferred onto a nitrocellulose membrane (Bio-Rad). Membranes were blocked with 5% non-fat milk powder in PBS-Tween 20 buffer for 1 h, followed by incubation with primary antibody at 4°C overnight. Membranes were washed in PBST and then incubated with HRP-conjugated anti-goat or mouse anti- IgG (Cell Signalling Technology) antibody and detected using the Millipore ECL Western Blot substrate. β-actin was used as a loading control. Antibodies were obtained from the following sources: Acetyl-α- Tubulin (Cell Signalling Technology, […], 1:500), β-actin (Santa Cruz Biotechnology, sc47778, 1:2000), HRP-conjugated secondary antibodies (Santa Cruz Biotechnology, 1:2000 for β-actin blots, 1:1000 for all others). Blots shown are representative of at least two independent experiments.
# [2] = system: panel of non-small lung cancer, melanoma, and hepatocellular carcinoma tumor cell lines; assay: Cell proliferation assay, solid tumor cell line panel; type: cell-based; details: 144 h; 6 days; range over cell lines; read-out: EC50 values across solid tumor panel
# Method: as §2
# HEL 92.1.7 = assay: Cell proliferation assay (Alamar Blue); type: cell-based, human; details: for EC50: Homo sapiens
# Method: as §2
# remaining HDACs = assay: HDAC panel HDAC1 to HDAC10, remaining HDACs (other than HDAC6 and HDAC8); type: biochemical; details: about […] to >10 μM, read-out: IC50 against the remaining HDACs
# Method: as §1
# Sequence of hHDAC8 (Q9BY41 whole entry): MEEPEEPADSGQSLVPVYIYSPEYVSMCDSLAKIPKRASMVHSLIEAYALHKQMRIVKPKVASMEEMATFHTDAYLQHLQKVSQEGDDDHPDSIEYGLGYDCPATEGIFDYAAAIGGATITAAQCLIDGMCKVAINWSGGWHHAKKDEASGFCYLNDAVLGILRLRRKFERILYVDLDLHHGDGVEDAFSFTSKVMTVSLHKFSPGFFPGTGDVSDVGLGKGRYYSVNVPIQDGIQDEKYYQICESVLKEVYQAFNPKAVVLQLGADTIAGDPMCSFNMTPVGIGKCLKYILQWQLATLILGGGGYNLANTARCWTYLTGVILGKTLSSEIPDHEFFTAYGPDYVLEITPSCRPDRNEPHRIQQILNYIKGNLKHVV
# T2 sequence (Q9UKV0 whole entry, canonical isoform): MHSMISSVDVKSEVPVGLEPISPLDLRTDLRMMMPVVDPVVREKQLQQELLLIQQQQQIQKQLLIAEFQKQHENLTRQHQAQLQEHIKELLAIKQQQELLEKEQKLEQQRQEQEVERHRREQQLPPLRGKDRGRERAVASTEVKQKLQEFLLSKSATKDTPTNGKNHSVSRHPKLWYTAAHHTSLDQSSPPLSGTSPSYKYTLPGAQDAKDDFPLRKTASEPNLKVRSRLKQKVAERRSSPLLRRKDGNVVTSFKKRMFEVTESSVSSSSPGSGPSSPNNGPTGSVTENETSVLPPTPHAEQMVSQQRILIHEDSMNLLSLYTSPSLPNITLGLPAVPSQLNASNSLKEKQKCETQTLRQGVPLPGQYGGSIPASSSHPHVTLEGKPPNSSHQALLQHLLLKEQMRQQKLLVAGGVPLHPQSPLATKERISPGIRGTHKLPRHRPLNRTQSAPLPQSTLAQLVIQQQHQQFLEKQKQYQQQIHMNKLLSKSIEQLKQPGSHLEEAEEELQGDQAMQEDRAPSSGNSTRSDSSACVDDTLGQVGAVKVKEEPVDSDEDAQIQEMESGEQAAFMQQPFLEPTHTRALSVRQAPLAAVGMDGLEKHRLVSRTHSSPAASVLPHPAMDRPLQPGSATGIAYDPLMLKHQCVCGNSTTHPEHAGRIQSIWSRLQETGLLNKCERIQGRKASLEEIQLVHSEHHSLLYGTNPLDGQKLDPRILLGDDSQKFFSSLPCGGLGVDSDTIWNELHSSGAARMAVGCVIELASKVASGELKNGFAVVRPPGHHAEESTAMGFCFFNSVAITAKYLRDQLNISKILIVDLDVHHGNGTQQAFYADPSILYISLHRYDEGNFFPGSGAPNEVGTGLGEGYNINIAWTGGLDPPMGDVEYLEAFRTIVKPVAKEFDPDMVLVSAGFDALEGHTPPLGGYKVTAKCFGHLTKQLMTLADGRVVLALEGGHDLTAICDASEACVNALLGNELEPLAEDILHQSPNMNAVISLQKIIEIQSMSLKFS
# T1 sequence (Q92769 whole entry, canonical isoform): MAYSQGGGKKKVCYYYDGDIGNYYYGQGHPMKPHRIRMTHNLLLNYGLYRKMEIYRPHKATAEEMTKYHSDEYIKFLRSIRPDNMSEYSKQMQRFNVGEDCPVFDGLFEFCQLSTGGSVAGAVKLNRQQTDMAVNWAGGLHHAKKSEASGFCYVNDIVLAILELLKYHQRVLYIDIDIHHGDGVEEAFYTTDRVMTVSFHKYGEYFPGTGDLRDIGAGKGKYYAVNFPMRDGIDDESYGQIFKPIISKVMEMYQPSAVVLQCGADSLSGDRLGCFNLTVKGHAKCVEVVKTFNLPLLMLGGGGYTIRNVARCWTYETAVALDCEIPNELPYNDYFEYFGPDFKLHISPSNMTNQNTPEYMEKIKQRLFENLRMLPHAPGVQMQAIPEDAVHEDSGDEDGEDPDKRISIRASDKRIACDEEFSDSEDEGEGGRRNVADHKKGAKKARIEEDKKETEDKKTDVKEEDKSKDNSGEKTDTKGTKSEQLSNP
# T3 sequence (Q8WUI4 whole entry, canonical isoform): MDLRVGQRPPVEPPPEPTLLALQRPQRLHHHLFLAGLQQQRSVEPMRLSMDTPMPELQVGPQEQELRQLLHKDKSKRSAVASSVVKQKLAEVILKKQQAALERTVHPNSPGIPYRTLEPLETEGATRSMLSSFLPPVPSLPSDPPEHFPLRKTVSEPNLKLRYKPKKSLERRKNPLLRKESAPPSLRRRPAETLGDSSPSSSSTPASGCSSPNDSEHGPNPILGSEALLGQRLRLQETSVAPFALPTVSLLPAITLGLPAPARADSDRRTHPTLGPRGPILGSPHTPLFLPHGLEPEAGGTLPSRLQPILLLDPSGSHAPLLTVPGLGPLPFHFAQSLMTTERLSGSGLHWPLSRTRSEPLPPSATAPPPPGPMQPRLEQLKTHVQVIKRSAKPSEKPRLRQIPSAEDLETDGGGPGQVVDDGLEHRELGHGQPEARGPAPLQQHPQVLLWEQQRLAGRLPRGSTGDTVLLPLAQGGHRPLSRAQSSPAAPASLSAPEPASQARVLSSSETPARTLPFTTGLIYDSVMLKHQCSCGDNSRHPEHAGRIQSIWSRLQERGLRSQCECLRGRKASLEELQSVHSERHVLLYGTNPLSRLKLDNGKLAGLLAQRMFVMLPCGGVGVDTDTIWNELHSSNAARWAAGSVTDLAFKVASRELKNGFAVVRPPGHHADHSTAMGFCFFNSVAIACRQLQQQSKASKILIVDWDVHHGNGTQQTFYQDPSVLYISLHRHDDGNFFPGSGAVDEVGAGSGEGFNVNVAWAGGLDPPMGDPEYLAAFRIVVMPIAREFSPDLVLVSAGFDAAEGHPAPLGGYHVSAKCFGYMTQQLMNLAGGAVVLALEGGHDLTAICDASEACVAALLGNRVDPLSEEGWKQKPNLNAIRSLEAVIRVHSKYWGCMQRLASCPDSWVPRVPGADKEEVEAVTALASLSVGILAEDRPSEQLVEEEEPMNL
# T6 sequence (Q13547 whole entry, canonical isoform): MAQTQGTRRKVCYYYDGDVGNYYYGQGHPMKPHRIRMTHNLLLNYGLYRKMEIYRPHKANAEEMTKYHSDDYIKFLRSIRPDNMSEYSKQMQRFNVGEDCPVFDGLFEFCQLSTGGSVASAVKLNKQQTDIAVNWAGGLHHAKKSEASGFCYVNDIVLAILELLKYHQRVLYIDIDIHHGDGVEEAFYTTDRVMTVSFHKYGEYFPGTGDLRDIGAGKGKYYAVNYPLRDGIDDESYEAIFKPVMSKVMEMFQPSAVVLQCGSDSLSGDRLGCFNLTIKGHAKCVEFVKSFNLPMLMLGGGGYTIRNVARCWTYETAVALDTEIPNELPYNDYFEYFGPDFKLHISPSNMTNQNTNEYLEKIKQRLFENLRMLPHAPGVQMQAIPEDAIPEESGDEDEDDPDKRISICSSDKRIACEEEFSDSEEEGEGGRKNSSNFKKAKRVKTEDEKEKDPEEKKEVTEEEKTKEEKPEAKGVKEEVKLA
# T4 sequence (Q9UQL6 whole entry, canonical isoform): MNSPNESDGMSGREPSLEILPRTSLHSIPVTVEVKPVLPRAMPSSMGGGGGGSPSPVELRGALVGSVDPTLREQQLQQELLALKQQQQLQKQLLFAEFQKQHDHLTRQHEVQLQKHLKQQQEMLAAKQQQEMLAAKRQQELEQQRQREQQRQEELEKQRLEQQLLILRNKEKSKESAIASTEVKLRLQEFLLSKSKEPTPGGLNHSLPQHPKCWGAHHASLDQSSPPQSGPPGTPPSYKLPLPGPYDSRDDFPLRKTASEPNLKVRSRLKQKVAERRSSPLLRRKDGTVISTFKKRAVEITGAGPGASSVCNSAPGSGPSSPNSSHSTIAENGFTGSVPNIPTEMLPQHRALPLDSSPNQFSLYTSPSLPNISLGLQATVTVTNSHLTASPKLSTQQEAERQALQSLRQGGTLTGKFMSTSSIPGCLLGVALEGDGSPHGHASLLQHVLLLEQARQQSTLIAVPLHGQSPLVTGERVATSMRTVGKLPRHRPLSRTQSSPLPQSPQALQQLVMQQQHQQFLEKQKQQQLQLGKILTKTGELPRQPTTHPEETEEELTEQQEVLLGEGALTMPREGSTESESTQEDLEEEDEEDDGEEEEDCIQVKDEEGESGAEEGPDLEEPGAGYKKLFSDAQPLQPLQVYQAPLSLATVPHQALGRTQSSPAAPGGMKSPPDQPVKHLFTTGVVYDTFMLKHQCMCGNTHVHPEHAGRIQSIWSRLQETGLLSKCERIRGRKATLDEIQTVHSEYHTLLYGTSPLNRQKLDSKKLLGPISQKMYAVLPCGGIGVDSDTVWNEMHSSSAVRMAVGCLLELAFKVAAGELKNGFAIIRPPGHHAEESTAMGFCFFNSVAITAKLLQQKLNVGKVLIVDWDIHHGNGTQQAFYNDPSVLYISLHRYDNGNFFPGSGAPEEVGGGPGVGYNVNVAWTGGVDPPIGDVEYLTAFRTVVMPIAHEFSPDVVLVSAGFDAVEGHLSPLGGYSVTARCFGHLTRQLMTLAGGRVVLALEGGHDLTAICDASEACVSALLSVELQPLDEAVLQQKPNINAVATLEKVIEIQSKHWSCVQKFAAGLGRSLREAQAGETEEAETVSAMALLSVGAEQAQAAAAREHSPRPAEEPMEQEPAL
smiles,measurement,setting,value
O=C(NO)c1ccc(CCCN2CCC(CN[C@H]3C[C@@H]3c3ccccc3)CC2)cc1 (relative stereo) [JBI-097],IC50,HDAC2,3950 nM
same,IC50,HDAC9,3430 nM
same,IC50,HDAC7,3580 nM
same,IC50,HDAC5,1140 nM
same,EC50,Hep3B2,1300 nM
same,EC50,HL60,1500 nM
same,EC50,WM-266-4,6830 nM
same,EC50,HT144,3140 nM
same,EC50,THP-1,226 nM
same,EC50,H1341,3260 nM
same,EC50,Hep-G2,1100 nM
same,EC50,RPMI-7591,8090 nM
same,EC50,H510A,1060 nM
same,EC50,OCI-AML3,30 nM
same,EC50,G362,7640 nM
same,EC50,H2171,2700 nM
same,EC50,Colo-289,2180 nM
same,EC50,MM1.R,29 nM
same,EC50,HL60-MX1,34 nM
same,EC50,SKMeI2,1830 nM
same,Tm of LSD1 incubated with compound,human LSD1,55 °C
same,Tm of HDAC8 incubated with compound,hHDAC8,47 °C
same,TGI,MM1.S xenograft; JBI-097 12.5 mg/kg PO in combination with BTZ (0.5 mg/kg IP BIW),82%
same,tolerability,MM1.S xenograft; JBI-097 12.5 mg/kg PO in combination with Pomalidomide,well tolerated
same,TGI,MM1.S xenograft; JBI-097 12.5 mg/kg PO in combination with pomalidomide (2.5 mg/kg PO 5x/week),60%
same,TGI,"MM1.S xenograft; single agent, 12.5 mg/Kg PO QD",23%
same,TGI,CT-26 syngeneic tumors; JBI-097 20 mg/kg PO in combination with anti-PD-L1 100 μg/animal IP Q4D,76%
same,TGI,"CT-26 syngeneic tumors; JBI-097 alone, 20 mg/kg PO, 5 days on 2 days off",50%
same,% tumor growth inhibition (TGI),[1]; 25 mg/kg,76%
same,body weight loss,"[1]; 50 mg/kg group, observed in 2 animals",5–10%
same,% tumor growth inhibition (TGI),[1]; 50 mg/kg,91%
same,IC50,HDAC1,3400 nM
same,CD86 modulation (mRNA),CD86,strong and sustained up-regulation
same,CD11b modulation (mRNA),CD11b,strong and sustained up-regulation
same,GFI1b modulation (mRNA),GFI1b,strong and sustained up-regulation
same,acetylation of α-Tubulin,acetylation of α-Tubulin,time and concentration dependent increase
same,EC50,[2],1060 to 8090 nM
same,cell growth inhibition reached (plateau),"HEL 92.1.7; HEL92.1.7, 6 days of incubation, up to 10 μM",100%
same,EC50,"HEL 92.1.7; HEL 92.1.7, read-out: anti-proliferative EC50, HEL92.1.7, 3 days (72 h) of incubation",722 nM
same,EC50,"HEL 92.1.7; HEL 92.1.7, Leukemia, 144 h, read-out: EC50, 144hr",49 nM
same,IC50,remaining HDACs,≥ 1100 nM
"CC(C)C[C@H](NC(=O)[C@H](Cc1ccccc1)NC(=O)c1cnccn1)B(O)O [Bortezomib, reference compound]",mortality,"MM1.S xenograft; Bortezomib 0.5 mg/kg IP BIW, mice dead/group",1/7
